# In patent US7129256B2, “Antiparkinsonism drugs” (Shionogi & Co., Ltd., priority 2000, dated 2006):
# Marks after values point to notes of the source that are not given here.
# What was measured:
# [1] = tested on: mice pre-treated with reserpine; experiment: reserpine-induced catalepsy test (bar test, catalepsy score); type: in vivo, ddy mice (male); conditions: reserpine 5 mg/kg i.p.
# Method: The effects of compound (IX) in single administration and in combination with L-DOPA on cataleptic responses were examined in mice pre-treated with a monoamine-depleting drug, reserpine.
# Reserpine (5 mg/kg, i.p., Apoplon Inj, Daiichi Pharmaceutical) was administrated to ddy mice (male). On the next day, compound (IX) (0.3, 1, 3 mg/kg, p.o.) with or without L-DOPA (25, 100 mg/kg, i.p., dissolved in 0.1N HCl and diluted with distilled water for injection (Otsuka Pharmaceutical)) was administrated to the mice and catalepsy test was performed after 1 hour. When L-DOPA was administrated, mice were pre-treated with carbidopa (25 mg/kg, i.p., 0.5% lactic acid) before 30 min.
# The forelimbs or hindlimbs of each mouse were placed on a 4.5 cm high horizontal bar and the time was measured (cut off time 30 sec) until both legs reach the floor. The cataleptic responses were scored as follows (less than 5 sec.: 0 point, 5 sec. to less than 10 sec.: 1 point, 10 sec to less than 15 sec.: 2 points, 15 sec. to than 20 sec.: 3 points, 20 sec. to less than 25 sec.: 4 points, 25 sec. to less than 30 sec.: 5 points, 30 sec. or more: 6 points).
# For forelimbs, the scores for 3 repetitive tests were summated. […] The catalepsy scores were calculated as the total scores for forelimbs and hindlimbs.
# normal mice = experiment: spontaneous locomotor activity after oral administration to normal mice (SCANET); type: in vivo, C57BL/6 mice (male); set-up: spontaneous locomotor activity / spontaneous locomotor activity, Total: unit not given here; conditions: for spontaneous locomotor activity, Total: total for 5 hours after administration
# Method: The enhancing effects of compound (IX) on the spontaneous locomotor activity were examined in normal mice.
# Compound (IX) was orally administrated to C57BL/6 mice (male) and the spontaneous locomotor activity was measured with a locomotor activity measuring apparatus (SCANET, TOYO sangyo). Mice were familiarized to the cage of the apparatus for at least 60 min. Compound (IX) (1,3,10 mg/kg) or vehicle (vehicle, distilled water Otsuka) was administrated orally. The spontaneous locomotor activity was measured for 5 hours after the mice were returned to the cage.
# MPTP-treated mice = experiment: spontaneous locomotor activity of MPTP-treated mice; type: in vivo, C57BL/6 mice (male); conditions: MPTP 40 mg/kg × 2
# Method: Mice injected with a dopaminergic toxin, MPTP were used as a model for Parkinson's disease and the effects of single administration of compound (IX) on the reduction of the spontaneous locomotor activity caused by MPTP-treatment were examined.
# MPTP (40 mg/kg, i.p., saline) was injected twice at 24-hr intervals to C57BL/6 mice (male), and the day after the last administration, the mice were placed in locomotor activity measuring apparatus. After 30 min, compound (IX) alone (0.3, 1, 3 mg/kg, p.o.) was administered.
smiles,measurement,setting,value
"N[C@@H](Cc1ccc(O)c(O)c1)C(=O)O [L-DOPA, reference compound]","catalepsy score, mean","[1]; L-DOPA 100 mg/kg i.p. + solvent p.o., 1 hour after administration",23.0
C[C@@H]1OC(=O)N[C@@H]1C(=O)NC(Cc1cscn1)C(=O)N1CCC[C@H]1C (stereo in doubt) [Compound (IX)],spontaneous locomotor activity,"normal mice; 1 mg/kg p.o., Time 0–30",3737
same,spontaneous locomotor activity,"normal mice; 1 mg/kg p.o., Time 30–0 (before administration)",436
same,spontaneous locomotor activity,"normal mice; 1 mg/kg p.o., Time 30–60",842
same,spontaneous locomotor activity,"normal mice; 1 mg/kg p.o., Time 60–30 (before administration)",1016
same,spontaneous locomotor activity,"normal mice; 1 mg/kg p.o., Time 60–90",1178
same,spontaneous locomotor activity,"normal mice; 1 mg/kg p.o., Time 90–120",1281
same,spontaneous locomotor activity,"normal mice; 1 mg/kg p.o., Time 120–150",991
same,spontaneous locomotor activity,"normal mice; 1 mg/kg p.o., Time 150–180",273
same,spontaneous locomotor activity,"normal mice; 1 mg/kg p.o., Time 180–210",411
same,spontaneous locomotor activity,"normal mice; 1 mg/kg p.o., Time 210–240",135
same,spontaneous locomotor activity,"normal mice; 1 mg/kg p.o., Time 240–270",463
same,spontaneous locomotor activity,"normal mice; 1 mg/kg p.o., Time 270–300",366
same,"spontaneous locomotor activity, Total",normal mice; 1 mg/kg p.o.,9676
same,spontaneous locomotor activity,"normal mice; 3 mg/kg p.o., Time 0–30",3755
same,spontaneous locomotor activity,"normal mice; 3 mg/kg p.o., Time 30–0 (before administration)",782
same,spontaneous locomotor activity,"normal mice; 3 mg/kg p.o., Time 30–60",2626
same,spontaneous locomotor activity,"normal mice; 3 mg/kg p.o., Time 60–30 (before administration)",2349
same,spontaneous locomotor activity,"normal mice; 3 mg/kg p.o., Time 60–90",2690
same,spontaneous locomotor activity,"normal mice; 3 mg/kg p.o., Time 90–120",2632
same,spontaneous locomotor activity,"normal mice; 3 mg/kg p.o., Time 120–150",2230
same,spontaneous locomotor activity,"normal mice; 3 mg/kg p.o., Time 150–180",868
same,spontaneous locomotor activity,"normal mice; 3 mg/kg p.o., Time 180–210",377
same,spontaneous locomotor activity,"normal mice; 3 mg/kg p.o., Time 210–240",940
same,spontaneous locomotor activity,"normal mice; 3 mg/kg p.o., Time 240–270",266
same,spontaneous locomotor activity,"normal mice; 3 mg/kg p.o., Time 270–300",597
same,"spontaneous locomotor activity, Total","normal mice; 3 mg/kg p.o., P < 0.05 vs vehicle",16941*
same,spontaneous locomotor activity,"normal mice; 10 mg/kg p.o., Time 0–30",5910
same,spontaneous locomotor activity,"normal mice; 10 mg/kg p.o., Time 30–0 (before administration)",401
same,spontaneous locomotor activity,"normal mice; 10 mg/kg p.o., Time 30–60",5079
same,spontaneous locomotor activity,"normal mice; 10 mg/kg p.o., Time 60–30 (before administration)",1700
same,spontaneous locomotor activity,"normal mice; 10 mg/kg p.o., Time 60–90",5485
same,spontaneous locomotor activity,"normal mice; 10 mg/kg p.o., Time 90–120",6138
same,spontaneous locomotor activity,"normal mice; 10 mg/kg p.o., Time 120–150",5582
same,spontaneous locomotor activity,"normal mice; 10 mg/kg p.o., Time 150–180",5390
same,spontaneous locomotor activity,"normal mice; 10 mg/kg p.o., Time 180–210",4218
same,spontaneous locomotor activity,"normal mice; 10 mg/kg p.o., Time 210–240",3297
same,spontaneous locomotor activity,"normal mice; 10 mg/kg p.o., Time 240–270",2305
same,spontaneous locomotor activity,"normal mice; 10 mg/kg p.o., Time 270–300",1457
same,"spontaneous locomotor activity, Total","normal mice; 10 mg/kg p.o., P < 0.01 vs vehicle",44861**
same,dose that increased the spontaneous locomotor activity,"normal mice; p.o., normal mice",≥ 3 mg/kg
same,"spontaneous locomotor activity, Total",MPTP-treated mice; compound (IX) alone 0.3 mg/kg p.o.,2731 ± 875
same,"spontaneous locomotor activity, Total",MPTP-treated mice; compound (IX) alone 1 mg/kg p.o.,4370 ± 1507
same,"catalepsy score, mean","[1]; compound (IX) 0.3 mg/kg p.o. + L-DOPA 100 mg/kg i.p., 1 hour",17.4
